In ChEMBL document CHEMBL4765295, “Synthesis, pharmacological profile and 2D-QSAR studies of curcumin-amino acid conjugates as potential drug candidates” (Eur J Med Chem, 2020):
Values joined by “and” are separate entries in the source; they are usually repeats but may differ in a detail not shown here. Equal entries are not always repeated.

Columns and labels:
Rattus norvegicus [1] = experiment: Anti-inflammatory activity in Wistar rat assessed as inhibition of carrageenan-induced paw edema at 10 mg/kg, ip pretreated for 1 hr followed by carrageenan challenge and measured after 4 hr relative to control (reference value: 0.00 +/-0.4 %); type: functional; details: time 5 hrs
Streptococcus pyogenes = experiment: Antibacterial activity against Streptococcus pyogenes ATCC 19615 incubated for 18 hrs by agar dilution method; type: functional
Peritoneal macrophage [2] = experiment: Antiinflammatory activity in […] mouse Peritoneal macrophages assessed as inhibition of LPS-induced NO production at 10 uM preincubated for 1 hr followed by LPS stimulation measured after 24 hrs by Griess method relative to control (reference value: 0.0 %); type: functional; parameters: scale not given: the % may be the effect or the level left; details: time 25 hrs
Mus musculus [3] = experiment: Analgesic activity in albino mouse assessed as forepaw licking/jumping latency time at 10 mg/kg, ip measured after 90 mins by hot plate test (reference value: 2.72 +/- 0.01 sec); type: functional; details: 1.5 h
Rattus norvegicus [4] = experiment: Anti-inflammatory activity in Wistar rat assessed as inhibition of carrageenan-induced paw edema at 10 mg/kg, ip pretreated for 1 hr followed by carrageenan challenge and measured after 4 hr relative to indomethacin; type: functional; details: time 5 hrs
Splenocyte [5] = experiment: Immunomodulatory activity in Swiss albino mouse splenocytes assessed as cell viability at 10 uM by measuring stimulation index incubated for 72 hrs in presence of mitogenic stimulus phytohaemagglutinin by MTT assay (reference value: 1.00 +/- 0.24); type: functional
Mus musculus [6] = experiment: Analgesic activity in albino mouse assessed as protection at 10 mg/kg, ip measured after 90 mins by hot plate test (reference value: 0 %); type: functional; details: 1.5 h
[7] = Ulcerogenic activity in fasted albino mouse assessed as average number of ulcers in gastric mucosa at 10 mg/kg, po for 3 days (reference value: 0); type: toxicity, organism-based; details: in vivo, 72 h, time 3 day
Rattus norvegicus [8] = experiment: Anti-inflammatory activity in Wistar rat assessed as inhibition of carrageenan-induced paw edema at 10 mg/kg, ip pretreated for 1 hr followed by carrageenan challenge and measured after 3 hr relative to control (reference value: 0.00 +/-0.1 %); type: functional; details: time 4 hrs
Splenocyte [9] = experiment: Immunomodulatory activity in Swiss albino mouse splenocytes assessed as cell viability at 10 uM by measuring inhibition of stimulation index incubated for 72 hrs in presence of mitogenic stimulus phytohaemagglutinin by MTT assay relative to indomethacin; type: functional; details: read-out: Activity
Mus musculus [10] = experiment: Analgesic activity in albino mouse assessed as protection at 10 mg/kg, ip measured after 30 mins by hot plate test (reference value: 0 %); type: functional; details: 0.5 h
Mus musculus [11] = experiment: Analgesic activity in albino mouse assessed as forepaw licking/jumping latency time at 10 mg/kg, ip measured after 30 mins by hot plate test (reference value: 5.02 +/- 0.09 sec); type: functional; details: 0.5 h
[12] = Ulcerogenic activity in fasted albino mouse assessed as average severity of ulcers in gastric mucosa at 10 mg/kg, po for 3 days (reference value: 0); type: toxicity, organism-based; details: in vivo, 72 h, time 3 day
[13] = Toxicity in albino mouse assessed as induction of toxic symptoms at 50 to 100 mg/kg, ip measured after 24 hrs; type: organism-based; details: in vivo, dose 50-100 mg/kg
Rattus norvegicus [14] = experiment: Anti-inflammatory activity in Wistar rat assessed as inhibition of carrageenan-induced paw edema at 10 mg/kg, ip pretreated for 1 hr followed by carrageenan challenge and measured after 2 hr relative to control (reference value: 0.00 +/-0.03 %); type: functional; details: time 3 hrs
Salmonella typhimurium = experiment: Antibacterial activity against Salmonella typhimurium ATCC 19430 incubated for 18 hrs by agar dilution assay; type: functional, Salmonella enterica subsp. enterica serovar Typhimurium; details: Salmonella enterica
Rattus norvegicus [15] = experiment: Antiinflammatory activity in Wistar rat model of carrageenan-induced paw edema assessed as reduction in thickness of paw edema at 10 mg/kg, ip pretreated for 1 hr followed by carrageenan challenge and measured after 4 hrs (reference value: 1.40 +/-0.10 mm); type: functional; details: time 5 hrs
Mus musculus [16] = experiment: Analgesic activity in albino mouse assessed protection against acetic acid-induced abdominal writhing at 10 mg/kg, ip pretreated for 1 hr followed by acetic acid challenge and measured starting 5 mins post acetic acid challenge for 10 mins relative to control (reference value: 0 %); type: functional; details: time 75 min, 1.25 h
Mus musculus [17] = experiment: Analgesic activity in albino mouse assessed as protection at 10 mg/kg, ip measured after 120 mins by hot plate test (reference value: 0 %); type: functional; details: 2 h
Rattus norvegicus [18] = experiment: Antiinflammatory activity in Wistar rat model of carrageenan-induced paw edema assessed as reduction in thickness of paw edema at 10 mg/kg, ip pretreated for 1 hr followed by carrageenan challenge and measured after 24 hrs (reference value: 0.83 +/-0.08 mm); type: functional; details: time 25 hrs
Rattus norvegicus [19] = experiment: Antiinflammatory activity in Wistar rat model of carrageenan-induced paw edema assessed as reduction in thickness of paw edema at 10 mg/kg, ip pretreated for 1 hr followed by carrageenan challenge and measured after 2 hrs (reference value: 2.06 +/-0.09 mm); type: functional; details: time 3 hrs
Mus musculus [20] = experiment: Analgesic activity in albino mouse assessed as forepaw licking/jumping latency time at 10 mg/kg, ip measured after 60 mins by hot plate test (reference value: 3.42 +/- 0.03 sec); type: functional; details: 1 h
[21] = Ulcerogenic activity in fasted albino mouse assessed as incidence of gastric ulceration at 10 mg/kg, po for 3 days (reference value: 0 %); type: toxicity, organism-based; details: in vivo, 72 h, time 3 day
[22] = Ulcerogenic activity in fasted albino mouse assessed as ulcer index in gastric mucosa at 10 mg/kg, po for 3 days (reference value: 0); type: toxicity, organism-based; details: in vivo, 72 h, time 3 day
Rattus norvegicus [23] = experiment: Anti-inflammatory activity in Wistar rat assessed as inhibition of carrageenan-induced paw edema at 10 mg/kg, ip pretreated for 1 hr followed by carrageenan challenge and measured after 1 hr relative to control (reference value: 0.00 +/-0.02 %); type: functional; details: time 2 hrs
Mus musculus [24] = experiment: Analgesic activity in albino mouse assessed protection against acetic acid-induced abdominal writhing at 10 mg/kg, ip pretreated for 1 hr followed by acetic acid challenge and measured starting 5 mins post acetic acid challenge for 10 mins relative to indomethacin; type: functional; details: time 75 min, 1.25 h
Mus musculus [25] = experiment: Analgesic activity in albino mouse assessed reduction in acetic acid-induced abdominal writhing by measuring writing reflex at 10 mg/kg, ip pretreated for 1 hr followed by acetic acid challenge and measured starting 5 mins post acetic acid challenge for 10 mins (reference value: 42.4 +/- 1.02); type: functional; details: time 75 min, 1.25 h
Candida albicans = experiment: Antifungal activity against Candida albicans incubated for 18 to 24 hrs by CLSI method; type: functional; details: time 18-24 hrs
Rattus norvegicus [26] = experiment: Anti-inflammatory activity in Wistar rat assessed as inhibition of carrageenan-induced paw edema at 10 mg/kg, ip pretreated for 1 hr followed by carrageenan challenge and measured after 24 hr relative to control (reference value: 0.00 +/-0.3 %); type: functional; details: time 25 hrs
Pseudomonas aeruginosa = experiment: Antibacterial activity against Pseudomonas aeruginosa ATCC 27853 incubated for 18 hrs by agar dilution assay; type: functional
Peritoneal macrophage [27] = experiment: Antiinflammatory activity in […] mouse Peritoneal macrophages assessed as reduction in LPS-induced NO production by measuring reduction in stimulation index at 10 uM preincubated for 1 hr followed by LPS stimulation measured after 24 hrs by Griess method (reference value: 27.31 +/- 2.56 uM); type: functional; details: time 25 hrs
Mus musculus [28] = experiment: Analgesic activity in albino mouse assessed as protection at 10 mg/kg, ip measured after 120 mins by hot plate test relative to indomethacin; type: functional; details: 2 h
Rattus norvegicus [29] = experiment: Antiinflammatory activity in Wistar rat model of carrageenan-induced paw edema assessed as reduction in thickness of paw edema at 10 mg/kg, ip pretreated for 1 hr followed by carrageenan challenge and measured after 3 hrs (reference value: 1.79 +/-0.07 mm); type: functional; details: time 4 hrs
Staphylococcus aureus = experiment: Antibacterial activity against Staphylococcus aureus ATCC 25923 incubated for 18 hrs by agar dilution method; type: functional
Mus musculus [30] = experiment: Analgesic activity in albino mouse assessed as protection at 10 mg/kg, ip measured after 60 mins by hot plate test (reference value: 0 %); type: functional; details: 1 h
Rattus norvegicus [31] = experiment: Antiinflammatory activity in Wistar rat model of carrageenan-induced paw edema assessed as reduction in thickness of paw edema at 10 mg/kg, ip pretreated for 1 hr followed by carrageenan challenge and measured after 1 hr (reference value: 2.41 +/-0.05 mm); type: functional; details: time 1 hr after carrageenan
Mus musculus [32] = experiment: Analgesic activity in albino mouse assessed as forepaw licking/jumping latency time at 10 mg/kg, ip measured after 120 mins by hot plate test (reference value: 2.62 +/- 0.06 sec); type: functional; details: 2 h

| SMILES | inhibition in vivo at 10 mg/kg (Rattus norvegicus [1]) [%] | MIC (Streptococcus pyogenes) | Activity (Peritoneal macrophage [2]) [%] | Time (Mus musculus [3]) [s] | inhibition in vivo at 10 mg/kg (Rattus norvegicus [4]) [%] | Activity_index (Splenocyte [5]) | Activity (Mus musculus [6]) [%] | Activity [7] | inhibition in vivo at 10 mg/kg (Rattus norvegicus [8]) [%] | viability at 10 µM (Splenocyte [9]) [%] | Activity (Mus musculus [10]) [%] | Time (Mus musculus [11]) [s] | Activity [12] | Activity [13] | inhibition in vivo at 10 mg/kg (Rattus norvegicus [14]) [%] | MIC (Salmonella typhimurium) | Activity (Rattus norvegicus [15]) [mm] | Activity (Mus musculus [16]) [%] | Activity (Mus musculus [17]) [%] | Activity (Rattus norvegicus [18]) [mm] | also measured |
| --- | --- | --- | --- | --- | --- | --- | --- | --- | --- | --- | --- | --- | --- | --- | --- | --- | --- | --- | --- | --- | --- |
| COc1cc(/C=C/C(=O)/C=C(O)/C=C/c2ccc(OC(=O)CNC(=O)OCC3c4ccccc4-c4ccccc43)c(OC)c2)ccc1OC(=O)CNC(=O)OCC1c2ccccc2-c2ccccc21 | 79 | 1 µg/mL and 1.08 µM | 31.43 | 3.82 | 91 | 1.76 | 40.4 | 0 | 74 | 68.8 | 18.7 | 5.96 | 0 | Non-Toxic | 62 | 1 µg/mL and 1.08 µM | 0.29 | 57.5 | 42 | 0.15 | Activity (Rattus norvegicus [19]): 0.78 mm; Time (Mus musculus [20]): 4.08 s; Activity [21]: 0%; UI [22]: 0; inhibition in vivo at 10 mg/kg (Rattus norvegicus [23]): 40%; Activity (Mus musculus [24]): 93.3%; Activity (Mus musculus [25]): 18; MIC (Candida albicans): 2 µg/mL and 2.16 µM; inhibition in vivo at 10 mg/kg (Rattus norvegicus [26]): 82%; MIC (Pseudomonas aeruginosa): 1 µg/mL and 1.08 µM; Activity (Peritoneal macrophage [27]): 18.73 µM; Activity (Mus musculus [28]): 100%; Activity (Rattus norvegicus [29]): 0.47 mm; MIC (Staphylococcus aureus): 1 µg/mL and 1.08 µM; Activity (Mus musculus [30]): 19.3%; Activity (Rattus norvegicus [31]): 1.45 mm; Time (Mus musculus [32]): 3.72 s |
| COc1cc(/C=C/C(=O)/C=C(O)/C=C/c2ccc(OC(=O)[C@H](CCSC)NC(=O)OCc3ccccc3)c(OC)c2)ccc1OC(=O)[C@H](CCSC)NC(=O)OCc1ccccc1 | 88 | 0.125 µg/mL and 0.139 µM | 44.44 | 3.66 | 101 | 1.22 | 34.6 | 0.33 | 86 | 99.3 | 6 | 5.32 | 0.33 | Non-Toxic | 80 | 0.125 µg/mL and 0.139 µM | 0.17 | 61.1 | 21.4 | 0.05 | Activity (Rattus norvegicus [19]): 0.41 mm; Time (Mus musculus [20]): 3.94 s; Activity [21]: 3.33%; UI [22]: 3.99; inhibition in vivo at 10 mg/kg (Rattus norvegicus [23]): 76%; Activity (Mus musculus [24]): 9.2%; Activity (Mus musculus [25]): 16.5; MIC (Candida albicans): 2 µg/mL and 2.23 µM; inhibition in vivo at 10 mg/kg (Rattus norvegicus [26]): 94%; MIC (Pseudomonas aeruginosa): 0.125 µg/mL and 0.139 µM; Activity (Peritoneal macrophage [27]): 15.17 µM; Activity (Mus musculus [28]): 51%; Activity (Rattus norvegicus [29]): 0.25 mm; MIC (Staphylococcus aureus): 0.125 µg/mL and 0.139 µM; Activity (Mus musculus [30]): 15.2%; Activity (Rattus norvegicus [31]): 0.58 mm; Time (Mus musculus [32]): 3.18 s |
